Activity calls are given as the source filed them. No cut-off for these calls is given here.
Columns and labels:
Bos taurus = organism: Bos taurus; assay: Inhibition of bovine tubulin polymerization at 3 uM after 1 hr by fluorescence assay relative to control
MCF7 = assay: Antiproliferative activity against human MCF7 cells assessed as cell viability after 48 hrs by SRB assay; type: functional, cell-based; details: MCF7, 48 h
A549 = assay: Antiproliferative activity against human A549 cells assessed as cell viability after 48 hrs by SRB assay; type: functional, cell-based; details: A549, 48 h
HeLa [1] = assay: Antiproliferative activity against human HeLa cells assessed as cell viability after 48 hrs by SRB assay; type: functional, cell-based
HeLa [2] = assay: Effect on nuclear condensation in human HeLa cells assessed as incomplete chromosome formation at 5 uM after 24 hrs by indirect immunofluorescence analysis; type: functional, cell-based
HeLa [3] = assay: Induction of cell cycle arrest in human HeLa cells assessed as accumulation of cells in G1 phase at 5 uM after 24 hrs by flow cytometry analysis (reference value: 69.43%); type: functional
HeLa [4] = assay: Induction of cell cycle arrest in human HeLa cells assessed as accumulation of cells in S phase at 5 uM after 24 hrs by flow cytometry analysis (reference value: 9.28%); type: functional
[5] = Inhibition of bovine tubulin assembly after 1 hr by fluorescence assay; design: species or system Bos taurus
HeLa [6] = assay: Antimitotic activity in human HeLa cells assessed as disruption of microtubule network at 5 uM after 24 hrs by indirect immunofluorescence analysis; type: functional, cell-based
HeLa [7] = assay: Induction of apoptosis in human HeLa cells assessed as increase in caspase 3 activity at 5 uM after 24 hrs by fluorimetry relative to control; type: functional
HeLa [8] = assay: Effect on formation of bipolar spindles in human HeLa cells at 5 uM after 24 hrs by indirect immunofluorescence analysis; type: functional, cell-based
HeLa [9] = assay: Induction of cell cycle arrest in human HeLa cells assessed as accumulation of cells in G2/M phase at 5 uM after 24 hrs by flow cytometry analysis (reference value: 21.29%); type: functional
HeLa [10] = assay: Induction of apoptosis in human HeLa cells assessed as increase in caspase 3 activity at 40 uM after 24 hrs by fluorimetry relative to control; type: functional
HeLa [11] = assay: Induction of apoptosis in human HeLa cells assessed as increase in caspase 3 activity at 5 uM after 24 hrs by fluorimetry; type: functional, cell-based

COc1cc(/C=C/[N+](=O)[O-])c(/C=C/c2ccc3ccccc3c2)c(OC)c1OC
inhibition (Bos taurus): 32% | IC50 (MCF7): 16.7 µM | IC50 (A549): 59.5 µM | IC50 (HeLa [1]; Homo sapiens, HeLa, 48 h): 189 µM

COc1cc(/C=C/[N+](=O)[O-])c(/C=C/c2ccc(C)cc2)c(OC)c1OC
Activity (HeLa [2]): Active | Activity (HeLa [3]): 9.66% | Activity (HeLa [4]): 23.91% | IC50 [5]: 4.27 µM | Activity (HeLa [6]): Active | fold change (FC) (HeLa [7]): 12 | inhibition (Bos taurus): 62% | IC50 (MCF7): 42.5 µM | IC50 (A549): 19 µM | IC50 (HeLa [1]; Homo sapiens, HeLa, 48 h): 4.4 µM | Activity (HeLa [8]): inactive | Activity (HeLa [9]): 66.43%

COc1cc(/C=C/[N+](=O)[O-])c(/C=C/c2ccc(-c3ccccc3)cc2)c(OC)c1OC
inhibition (Bos taurus): 28% | IC50 (MCF7): 7.2 µM | IC50 (A549): 44.4 µM | IC50 (HeLa [1]; hela): Not Active

COc1ccc(/C=C/c2c(/C=C/[N+](=O)[O-])cc(OC)c(OC)c2OC)cc1
Activity (HeLa [2]): Active | Activity (HeLa [3]): 16.64% | Activity (HeLa [4]): 22.96% | IC50 [5]: 4.9 µM | Activity (HeLa [6]): Active | fold change (FC) (HeLa [7]): 10 | inhibition (Bos taurus): 59% | IC50 (MCF7): 21.4 µM | IC50 (A549): 40.4 µM | IC50 (HeLa [1]; Homo sapiens, HeLa, 48 h): 7.8 µM | Activity (HeLa [8]): inactive | Activity (HeLa [9]): 60.4%

COc1cc(/C=C/c2c(/C=C/[N+](=O)[O-])cc(OC)c(OC)c2OC)cc(OC)c1OC
inhibition (Bos taurus): 20% | IC50 (MCF7): 13.2 µM | IC50 (A549): 27.1 µM | IC50 (HeLa [1]; hela): Not Active

COc1cc2c(c(OC)c1OC)-c1ccc(OC)c(=O)cc1[C@@H](NC(C)=O)CC2 [COLCHICINE]
IC50 [5]: 1.96 µM | inhibition (Bos taurus): 58%

COc1cc(/C=C/[N+](=O)[O-])c(/C=C/c2ccc(F)cc2)c(OC)c1OC
inhibition (Bos taurus): 31% | IC50 (MCF7): 19 µM | IC50 (A549): 35.9 µM | IC50 (HeLa [1]; Homo sapiens, HeLa, 48 h): 12.4 µM

COc1cc(/C=C/[N+](=O)[O-])c(/C=C/c2ccc3c(c2)OCO3)c(OC)c1OC
Activity (HeLa [3]): 27.14% | Activity (HeLa [4]): 22.3% | IC50 [5]: 8.02 µM | inhibition (Bos taurus): 51% | IC50 (MCF7): 19.2 µM | IC50 (A549): 16.3 µM | IC50 (HeLa [1]; Homo sapiens, HeLa, 48 h): 5.4 µM | Activity (HeLa [9]): 50.56%

Oc1ccc(/C=C/c2cc(O)cc(O)c2)cc1 [RESVERATROL]
fold change (FC) (HeLa [10]): 5 | Activity (HeLa [11]): inactive | IC50 (MCF7): 79.1 µM | IC50 (A549): 44.7 µM | IC50 (HeLa [1]; Homo sapiens, HeLa, 48 h): 22.5 µM

COc1cc(/C=C/[N+](=O)[O-])c(/C=C/c2ccc(Br)cc2)c(OC)c1OC
inhibition (Bos taurus): 28% | IC50 (MCF7): 14.6 µM | IC50 (A549): 41 µM | IC50 (HeLa [1]; hela): Not Active

COc1cc(/C=C/c2c(/C=C/[N+](=O)[O-])cc(OC)c(OC)c2OC)cc(OC)c1
inhibition (Bos taurus): 27% | IC50 (MCF7): 19.2 µM | IC50 (A549): 15 µM | IC50 (HeLa [1]; Homo sapiens, HeLa, 48 h): 10 µM

COc1cc(/C=C/[N+](=O)[O-])c(/C=C/c2ccccc2)c(OC)c1OC
inhibition (Bos taurus): 31% | IC50 (MCF7): 10.9 µM | IC50 (A549): 28.9 µM | IC50 (HeLa [1]; Homo sapiens, HeLa, 48 h): 5.42 µM

COc1cc(/C=C/[N+](=O)[O-])c(/C=C/c2ccc(Cl)cc2)c(OC)c1OC
inhibition (Bos taurus): 33% | IC50 (MCF7): 25.7 µM | IC50 (A549): 22.8 µM | IC50 (HeLa [1]; hela): Not Active

Source: ChEMBL document CHEMBL1833868, “Design and synthesis of resveratrol-based nitrovinylstilbenes as antimitotic agents” (J Med Chem, 2011)
